# Measured values: patent publication US6169181A, “Compounds useful to treat retroviral infections” (Pharmacia & Upjohn Company, priority 1998, dated 2001)
# “And” between values parts separate entries of the source, which are not always exact repeats. Identical values can stand only once. Like-named read-outs stand apart in the source and are kept apart here.
# Assays:
# [1] = target: T1, single chain tethered (tandem) HIV protease (HIV-1 M:B_HXB2R, UniProt P04585); experiment: Tandem HIV protease assay; format: biochemical; details: read-out: FITC KI; Table II; enzyme HIV1TANDEM
# T1 construct: purified enzyme, FITC/biotin substrate assay
# Procedure, shortened: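 Covalently tethered single-chain HIV protease dimer allows very low enzyme levels for Ki measurement. N-biotinylated, C-fluorescein-labelled peptide substrate incubated with enzyme and inhibitor at pH 5.5 in the dark for 96 h; streptavidin beads stop reaction, cleaved product filtered off and residual fluorescence fitted to obtain Ki.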
# [2] = target: HIV-1 protease (Human immunodeficiency virus type 1 group M subtype B, UniProt P04585); experiment: biochemical
# Procedure, shortened: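 A substrate biotinylated at the N-terminal arginine and FITC-labelled at the C-terminal lysine was incubated with HIV-1 protease (10 μl of 0.1 μM) and compound for 1 h in the dark at room temperature. Buffer was 0.1 M sodium acetate pH 5.5, 1.0 M NaCl, 0.05% NP-40. Labelled product was separated from substrate using streptavidin beads and filtration, and the fluorescence gave percent inhibition.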
# [3] = Table II, enzyme HIV-1, DOSE 0.123 (unit not given)
# [4] = Table II, enzyme HIV-1, DOSE 0.370 (unit not given)
# [5] = Table II, enzyme HIV-1, DOSE 1.100 (unit not given)
# [6] = Table II, enzyme HIV-1, DOSE 3.300 (unit not given)
# [7] = Table II, enzyme HIV-1, DOSE 10.000 (unit not given)
# [8] = Table II, enzyme HIV-1, DOSE 30.000 (unit not given)
Compound,Ki [1],"PROTEASE % INHIB. [2, 3]","PROTEASE % INHIB. [2, 4]","PROTEASE % INHIB. [2, 5]","PROTEASE % INHIB. [2, 6]","PROTEASE % INHIB. [2, 7]","PROTEASE % INHIB. [2, 8]",PROTEASE % INHIB. [2]
"CCC[C@@]1(CCc2ccc(F)cc2)CC(O)=C([C@H](c2cccc(NS(=O)(=O)c3ccc(C#N)cn3)c2)C(C)(C)C)C(=O)O1 (single isomer, unassigned) [Example 347, N-[3-{1(S or R)-(4-Hydroxy-5,6-dihydro-2-oxo-6(R or S)-(2-(4-fluorophenyl)ethyl)-6-propyl-2H-pyran-3-yl)-2,2-dimethyl-propyl}phenyl]-5-cyanopyridine-2-sulfonamide]",13.6 nM,20.99%,50.82%,71.4%,83%,90.97%,87.18%,–
"CCC[C@]1(CCc2ccc(F)cc2)CC(O)=C([C@H](c2cccc(NS(=O)(=O)c3ccc(C#N)cn3)c2)C(C)(C)C)C(=O)O1 (single isomer, unassigned) [Example 348, N-[3-{1(S or R)-(4-Hydroxy-5,6-dihydro-2-oxo-6(S or R)-(2-(4-fluorophenyl)ethyl)-6-propyl-2H-pyran-3-yl)-2,2-dimethyl-propyl}phenyl]-5-cyanopyridine-2-sulfonamide]",1.96 nM,53.47%,78.32%,89.84%,92.96%,96.28%,84.67%,–
"CCC[C@@]1(CCc2ccc(F)cc2)CC(O)=C([C@@H](c2cccc(NS(=O)(=O)c3cn(C)cn3)c2)C(C)(C)C)C(=O)O1 (single isomer, unassigned) [Example 349, N-[3-{1(R or S)-(4-Hydroxy-5,6-dihydro-2-oxo-6(R or S)-(2-(4-fluorophenyl)ethyl)-6-propyl-2H-pyran-3-yl)-2,2-dimethyl-propyl}phenyl]-1-methyl-1H-imidazole-4-sulfonamide]",0.111 nM,74.5%,88.21%,99.92%,104.99%,103.49%,98.24%,–
"CC(C)(C)C(C1=C(O)CC(CCc2ccccc2)(CCc2ccccc2)OC1=O)c1cccc(NS(=O)(=O)c2ccc(N)cn2)c1 (single isomer, unassigned) [Example 356, N-[3-{1(S or R)-(4-Hydroxy-5,6-dihydro-2-oxo-6,6-bis(2-phenyl-ethyl)-2H-pyran-3-yl)-2,2-dimethylpropyl}phenyl]-5-amino-pyridine-2-sulfonamide]",1.1 nM,54.96%,71.75%,90.19%,92.28%,100.22%,95.16%,–
"CCCC1(CCC)CC(O)=C(C(CC)c2cccc(NS(=O)(=O)c3ccc(C(F)(F)F)cn3)c2)C(=O)O1 (centres unmarked) [Example 280, 5-Trifluoromethyl-N-[3-[1-[4-hydroxy-2-oxo-6,6-di-n-propyl-5,6-dihydro-2H-pyran-3-yl]-propyl]-phenyl]-2-pyridinesulfonamide]",0.1 nM,95.28%,94.98%,93.01%,86.69%,78.64%,76.85%,–
"CCCC1(CCc2ccccc2)CC(O)=C(C(c2cccc(NS(=O)(=O)c3ccc(N)cn3)c2)C(C)(C)C)C(=O)O1 (centres unmarked) [Example 299, 5-Amino-N-[3-(1-[5,6-dihydro-4-hydroxy-2-oxo-6-(2-phenylethyl)-6-propyl-2H-pyran-3-yl]-2,2-dimethylpropyl)phenyl]-2-pyridinesulfonamide]",0.2 nM,–,–,–,–,–,–,83.51 and 104.76 and 117.95 and 115.61 and 128.03 and 102.89
"CCC(C1=C(O)CC(CCc2ccccc2)(CCc2ccccc2)OC1=O)c1cccc(NS(=O)(=O)c2cn(C)cn2)c1 (centres unmarked) [Example 330, N-[3-{1-(4-Hydroxy-5,6-dihydro-2-oxo-6,6-bis(2-phenylethyl)-2H-pyran-3-yl)propyl}phenyl]-1-methyl-1H-imidazole-4-sulfonamide]",0.524 nM,93.74%,94.32%,93.66%,85.63%,87.9%,69.82%,–
"CCC(C1=C(O)CC(CCc2ccccc2)(CCc2ccccc2)OC1=O)c1cccc(NS(=O)(=O)c2ccc(C#N)cn2)c1 (centres unmarked) [Example 331, N-[3-{1-(4-Hydroxy-5,6-dihydro-2-oxo-6,6-bis(2-phenylethyl)-2H-pyran-3-yl)propyl}phenyl]-5-cyanopyridine-2-sulfonamide]",0.272 nM,99.76%,104.06%,108.51%,99.3%,103.28%,93.3%,–
"CCCC1(CCC)CC(O)=C(C(CC)c2cccc(NS(=O)(=O)c3ccc(C(N)=O)cn3)c2)C(=O)O1 (centres unmarked) [Example 334, N-[3-{1-(4-Hydroxy-5,6-dihydro-2-oxo-6,6-dipropyl-2H-pyran-3-yl)propyl}phenyl]-5-carbamoylpyridine-2-sulfonamide]",0.45 nM,93.49%,90.25%,94.57%,102.47%,97.61%,96.3%,–
"CC(C)(C)C(C1=C(O)C2CCCCCCC2OC1=O)c1cccc(NS(=O)(=O)c2ccc(C#N)cn2)c1 (centres unmarked) [Example 373, 5-Cyano-N-[3-[2,2-dimethyl-1-(4a,5,6,7,8,9,10,10a-octahydro-4-hydroxy-2-oxo-2H-cycloocta[b]pyran-3-yl)propyl]phenyl]-2-pyridinesulfonamide]",0.2 nM,90.71%,90.35%,103.83%,88.72%,85.75%,89.53%,–
